Columns and labels:
c-myc mRNA, HL-60 = experiment: c-myc mRNA levels, real time RT-PCR; type: cell-based, human
Protocol: (§1) RNA was extracted from 10^6 cells using TRIZOL® Reagent (Life Technologies). Following isopropanol precipitation, the pellet was washed in 75% aqueous ethanol and the RNA was dissolved in […] of diethyl pyrocarbonate (DEPC)-treated distilled water. Subsequently, the samples were stored at −80° C. RNA quantitation was performed by UV measurement at 260 nm. The cDNA synthesis was performed in a total volume of […], containing 1×TaqManÒ RT buffer, 5.5 mM MgCl2, 2 mM dNTPs mixture, 2.5 mM random hexamers, 4 U RNase inhibitor, 12.5 U MultiScriber RT (Perkin Elmer/Applied Biosystems) and […] of RNA. The reaction was performed for 10 min at 25° C., followed by 48° C. for 30 min and a 5 min incubation step at 95° C. After the reaction, […] of DEPC-treated distilled water was added to each sample and […] was used for each PCR.
(§2) The PCR and subsequent analyses were performed in the GeneAmp 5700 Sequence Detection System (Applied Biosystems). Real-time quantitation was performed using the TaqMan technology of Applied Biosystems (Foster City, Calif., USA). c-Myc primers and probe sequences (5′ to 3′) were as follows: […], […] and […] (Applied Biosystems).
(§3) PCR reactions were performed in triplicate. The PCR reaction mixture contained 300 nM of both primers, 150 nM TaqMan probe, and 1×TaqMan Universal Master Mix (Applied Biosystems). The reactions first were incubated at 50° C. for 2 min, followed by 10 min at 95° C. The PCR itself consisted of 40 cycles with 15 s at 95° C. and 1 min at 60° C. each. The fluorescence signal was measured during the last 30 s of the annealing/extension phase. After the PCR, a fluorescence threshold value was set and threshold cycle (Ct) values were determined, i.e., the fractional cycle at which the fluorescence signal reached this threshold. These values were used for further calculations.
(§4) β-Actin (TaqMan PDAR control, Applied Biosystems) was used as an endogenous reference to correct for any differences in the amount of total RNA used for a reaction and to compensate for different levels of inhibition during reverse transcription of RNA into cDNA. c-Myc and β-actin expression were related to a standard curve derived from a serial dilution of K562 cDNA with dH2O. Also, c-Myc and β-actin quantities were expressed in terms of ng of K562 RNA yielding the same level of expression. Subsequently, normalization was achieved by dividing the expression level of c-Myc by the β-actin expression level. Finally, results were expressed as a percentage, where the level of c-Myc observed in the DMSO-treated samples was considered as 100%.
(§5) Cells were treated with brusatol (25 ng/ml) or bruceantin (10 ng/ml) for 4 or 24 h and then analyzed for c-myc and β-actin mRNA using real time RT-PCR. Results are shown as percentage of c-myc mRNA expression of control (0.1%, v/v, DMSO) values. Results are the mean of triplicate samples (±standard deviation). c-Myc mRNA values were normalized relative to β-actin.

c-myc mRNA, Daudi = experiment: c-myc mRNA levels, real time RT-PCR; type: cell-based
Protocol: as §1, §2, §3, §4, §5

c-myc mRNA, Kasumi-1 = experiment: c-myc mRNA levels, real time RT-PCR; type: cell-based
Protocol: as §1, §2, §3, §4, §5

c-myc mRNA, K562 = experiment: c-myc mRNA levels, real time RT-PCR; type: cell-based
Protocol: as §1, §2, §3, §4, §5

c-myc mRNA, RS4;11 = experiment: c-myc mRNA levels, real time RT-PCR; type: cell-based
Protocol: as §1, §2, §3, §4, §5

c-myc mRNA, U937 = experiment: c-myc mRNA levels, real time RT-PCR; type: cell-based
Protocol: as §1, §2, §3, §4, §5

c-myc mRNA, SUPB13 = experiment: c-myc mRNA levels, real time RT-PCR; type: cell-based
Protocol: as §1, §2, §3, §4, §5

c-myc mRNA, BV173 = experiment: c-myc mRNA levels, real time RT-PCR; type: cell-based
Protocol: as §1, §2, §3, §4, §5

c-myc mRNA, Reh = experiment: c-myc mRNA levels, real time RT-PCR; type: cell-based
Protocol: as §1, §2, §3, §4, §5

c-myc mRNA, NB4 = experiment: c-myc mRNA levels, real time RT-PCR; type: cell-based
Protocol: as §1, §2, §3, §4, §5

c-Myc oncoprotein, HL-60 = experiment: c-Myc oncoprotein expression, western blotting; type: cell-based, human
Protocol: The expression of c-Myc was assessed by immunoblots as previously described. In brief, cells (10^6) were treated and harvested at various time intervals, and whole-cell pellets were lysed with detergent lysis buffer (1 ml/10^7 cells, 50 mM Tris-HCl buffer, pH 8.0, 150 mM NaCl, 1 mM DTT, 0.5 mM EDTA, 1% Nonidet® P40, 0.5% sodium deoxycholate, 0.1% sodium dodecylsulfate, 100 μg/ml phenylmethylsulfonyl fluoride, 1 μg/ml aprotinin, 2 μg/ml leupeptin and 100 μM sodium vanadate) to obtain protein lysates. Protein concentrations were quantified using a bicinchoninic acid kit. Since c-Myc is a labile protein, cell lysates were not frozen, but stored at 4° C., until all protein lysates were prepared for a particular cell line, and then western blots were performed immediately. Total protein ([…]) was separated by 10% SDS-PAGE, electroblotted to PVDF membranes, and blocked overnight with 5% nonfat dry milk. The membrane was incubated with a solution of the primary antibody (2.5 μg/ml), prepared in 1% blocking solution, for 2 h at room temperature, washed three-times for 15 min with PBS-T (PBS with 0.1%, v/v, Tween 20), and incubated with a 1:2500 dilution of horseradish peroxidase-conjugated secondary antibody for 30 min at 37° C. Blots were again washed three-times for 10 min each in PBS-T and developed by enhanced chemiluminescence (Amersham). Membranes were exposed to Kodak Biomax film and the resulting film was analyzed using Kodak 1D Image Analysis software. Membranes were then stripped and reprobed for the quantification of bactin.
Cells were treated with solvent (0.1% v/v DMSO, control), brusatol (25 ng/ml) or bruceantin (10 ng/ml) for 4 or 24 h, then analyzed by western blotting. Membranes were probed for c-Myc, and then stripped and probed for β-actin as an internal control.
Cells were treated with brusatol (25 ng/ml) or bruceantin (10 ng/ml) for 4 or 24 h, and then analyzed for c-Myc and β-actin expression using western blotting techniques. Results are expressed as percentage of c-Myc oncoprotein of control (0.1%, v/v, DMSO treated cells) values. Results were normalized relative to β-actin.

COC(=O)[C@@]12OC[C@]34[C@H]([C@@H](O)[C@@H]1O)[C@@]1(C)CC(=O)C(O)=C(C)[C@@H]1C[C@H]3OC(=O)[C@H](OC(=O)C=C(C)C)[C@@H]24 [compound 1, brusatol]
decrease in c-Myc mRNA levels (c-myc mRNA, HL-60; 4 h treatment): about 50% | c-myc mRNA expression, percentage of control (c-myc mRNA, HL-60; Brusatol (25 ng/ml), 4 h): 54 ± 2 % | c-myc mRNA expression, percentage of control (c-myc mRNA, HL-60; Brusatol (25 ng/ml), 24 h): 11 ± 2 % | c-myc mRNA expression, percentage of control (c-myc mRNA, Daudi; Brusatol (25 ng/ml), 4 h): 100 ± 7% | c-myc mRNA expression, percentage of control (c-myc mRNA, Daudi; Brusatol (25 ng/ml), 24 h): 84 ± 1 % | c-myc mRNA expression, percentage of control (c-myc mRNA, Kasumi-1; Brusatol (25 ng/ml), 4 h): 27 ± 5 % | c-myc mRNA expression, percentage of control (c-myc mRNA, Kasumi-1; Brusatol (25 ng/ml), 24 h): 31 ± 3 % | decrease in c-Myc mRNA levels (c-myc mRNA, K562; 4 h treatment): about 40% | c-myc mRNA expression, percentage of control (c-myc mRNA, K562; Brusatol (25 ng/ml), 4 h): 62 ± 4 % | c-myc mRNA expression, percentage of control (c-myc mRNA, K562; Brusatol (25 ng/ml), 24 h): 45 ± 6 % | c-myc mRNA expression, percentage of control (c-myc mRNA, RS4;11; RS4,11, Brusatol (25 ng/ml), 24 h): 37 ± 2 % | c-myc mRNA expression, percentage of control (c-myc mRNA, RS4;11; RS4;11, Brusatol (25 ng/ml), 4 h): 54 ± 5 % | c-myc mRNA expression, percentage of control (c-myc mRNA, U937; Brusatol (25 ng/ml), 4 h): 103 ± 1% | c-myc mRNA expression, percentage of control (c-myc mRNA, U937; Brusatol (25 ng/ml), 24 h): 19 ± 1 % | c-myc mRNA expression, percentage of control (c-myc mRNA, SUPB13; Brusatol (25 ng/ml), 4 h): 27 ± 3 % | c-myc mRNA expression, percentage of control (c-myc mRNA, SUPB13; Brusatol (25 ng/ml), 24 h): 24 ± 1 % | c-myc mRNA expression, percentage of control (c-myc mRNA, BV173; Brusatol (25 ng/ml), 4 h): 78 ± 12 % | c-myc mRNA expression, percentage of control (c-myc mRNA, BV173; Brusatol (25 ng/ml), 24 h): 45 ± 0 % | c-myc mRNA expression, percentage of control (c-myc mRNA, Reh; Brusatol (25 ng/ml), 4 h): 87 ± 2% | c-myc mRNA expression, percentage of control (c-myc mRNA, Reh; Brusatol (25 ng/ml), 24 h): 38 ± 3 % | c-myc mRNA expression, percentage of control (c-myc mRNA, NB4; Brusatol (25 ng/ml), 4 h): 34 ± 4 % | c-myc mRNA expression, percentage of control (c-myc mRNA, NB4; Brusatol (25 ng/ml), 24 h): 24 ± 3 % | decrease of c-Myc protein levels (c-Myc oncoprotein, HL-60; 4 h treatment): 100% | c-Myc oncoprotein, percentage of control (c-Myc oncoprotein, HL-60; Brusatol (25 ng/ml), 4 h): 0% | c-Myc oncoprotein, percentage of control (c-Myc oncoprotein, HL-60; Brusatol (25 ng/ml), 24 h): 17%

COC(=O)[C@@]12OC[C@]34[C@H]([C@@H](O)[C@@H]1O)[C@@]1(C)CC(=O)C(O)=C(C)[C@@H]1C[C@H]3OC(=O)[C@H](OC(=O)/C=C(\C)C(C)C)[C@@H]24 [compound 2, bruceantin]
c-myc mRNA expression, percentage of control (c-myc mRNA, HL-60; Bruceantin (10 ng/ml), 4 h): 76 ± 9 % | c-myc mRNA expression, percentage of control (c-myc mRNA, HL-60; Bruceantin (10 ng/ml), 24 h): 16 ± 0 % | c-myc mRNA expression, percentage of control (c-myc mRNA, Daudi; Bruceantin (10 ng/ml), 4 h): 134 ± 17% | c-myc mRNA expression, percentage of control (c-myc mRNA, Daudi; Bruceantin (10 ng/ml), 24 h): 70 ± 5 % | c-myc mRNA expression, percentage of control (c-myc mRNA, Kasumi-1; Bruceantin (10 ng/ml), 4 h): 20 ± 2 % | c-myc mRNA expression, percentage of control (c-myc mRNA, Kasumi-1; Bruceantin (10 ng/ml), 24 h): 15 ± 2 % | c-myc mRNA expression, percentage of control (c-myc mRNA, K562; Bruceantin (10 ng/ml), 4 h): 55 ± 2 % | c-myc mRNA expression, percentage of control (c-myc mRNA, K562; Bruceantin (10 ng/ml), 24 h): 33 ± 2 % | c-myc mRNA expression, percentage of control (c-myc mRNA, RS4;11; RS4;11, Bruceantin (10 ng/ml), 4 h): 68 ± 3% | c-myc mRNA expression, percentage of control (c-myc mRNA, RS4;11; RS4;11, Bruceantin (10 ng/ml), 24 h): 31 ± 8 % | c-myc mRNA expression, percentage of control (c-myc mRNA, U937; Bruceantin (10 ng/ml), 4 h): 86 ± 1% | c-myc mRNA expression, percentage of control (c-myc mRNA, U937; Bruceantin (10 ng/ml), 24 h): 19 ± 2 % | c-myc mRNA expression, percentage of control (c-myc mRNA, SUPB13; Bruceantin (10 ng/ml), 4 h): 38 ± 2 % | c-myc mRNA expression, percentage of control (c-myc mRNA, SUPB13; Bruceantin (10 ng/ml), 24 h): 24 ± 2 % | c-myc mRNA expression, percentage of control (c-myc mRNA, BV173; Bruceantin (10 ng/ml), 4 h): 125 ± 11 % | c-myc mRNA expression, percentage of control (c-myc mRNA, BV173; Bruceantin (10 ng/ml), 24 h): 67 ± 9 % | c-myc mRNA expression, percentage of control (c-myc mRNA, Reh; Bruceantin (10 ng/ml), 4 h): 68 ± 5 % | c-myc mRNA expression, percentage of control (c-myc mRNA, Reh; Bruceantin (10 ng/ml), 24 h): 42 ± 6 % | c-myc mRNA expression, percentage of control (c-myc mRNA, NB4; Bruceantin (10 ng/ml), 4 h): 27 ± 4 % | c-myc mRNA expression, percentage of control (c-myc mRNA, NB4; Bruceantin (10 ng/ml), 24 h): 85 ± 5% | c-Myc oncoprotein, percentage of control (c-Myc oncoprotein, HL-60; Bruceantin (10 ng/ml), 4 h): 3% | c-Myc oncoprotein, percentage of control (c-Myc oncoprotein, HL-60; Bruceantin (10 ng/ml), 24 h): 57%

Reference: patent publication US20020193425A1, “Cancer chemopreventative compounds and compositions and methods of treating cancers” (priority 2001, published 2002)
